Reference: US10633374B2, “Small molecule based antibody-recruiting compounds for cancer treatment” (YALE UNIVERSITY, priority 2015, dated 2020)

Tests used:
[1] = test system: B16 melanoma tumors expressing human uPAR; assay: B16 mouse melanoma allograft model expressing human uPAR; format: in vivo
Description: The inventors also examined the efficacy of ARM-U2 in a B16−uPAR mouse allograft model developed in our laboratory. Mice immunized to produce anti-DNP IgG antibodies containing tumors expressing human uPAR, received daily treatment via intraperitoneal (IP) injection and were monitored over the course of 42 days.

uPAR (uPA binding site) = biological target: T1, uPAR (uPA binding site) (Homo sapiens, UniProt Q03405); assay: Competitive ELISA uPAR binding assay (immobilized urokinase)
T1 construct: purchased R&D systems
T1 sequence (Q03405 23-305): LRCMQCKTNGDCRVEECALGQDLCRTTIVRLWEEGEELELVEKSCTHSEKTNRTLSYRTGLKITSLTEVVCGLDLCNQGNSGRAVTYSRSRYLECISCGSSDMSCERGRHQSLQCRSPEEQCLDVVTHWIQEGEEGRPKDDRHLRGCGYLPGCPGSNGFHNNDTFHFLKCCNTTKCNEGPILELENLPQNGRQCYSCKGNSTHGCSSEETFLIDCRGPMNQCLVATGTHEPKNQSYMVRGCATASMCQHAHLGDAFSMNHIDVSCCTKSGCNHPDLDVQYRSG
Protocol: The affinity of ARM-U2 derivatives differing in both the length of the DNP-linker substituted at position 2 of ring C and the display of negative charge density (FIG. 8, Table 1) for uPAR were assayed using a competitive ELISA binding assay. The assay involves the immobilization of urokinase, a natural high affinity ligand for uPAR followed by the addition of a fixed concentration of recombinant uPAR protein and increasing concentrations of ARM-U2 which competes with urokinase for binding to the uPA binding site of uPAR. Following several washing steps, the amount of uPAR bound is quantified by a biotinylated anti-uPAR antibody and avidin-HRP and can be fit to a competitive binding model allowing for the extraction of the uPAR/ARM-U2 Kd.
All ARM-U2 derivatives were assessed for their ability to bind selectively to recombinant uPAR in vitro using a competitive ELISA binding assay. DMSO stock solutions of each ARM-U2 derivative stored at −20° C. were titrated into wells pre-coated with human urokinase (isolated from human urine, ProSpec 1 mg/ml deI water 18.5 μM) in the presence of uPAR. Selective binding to uPAR by ARM-U2 at the uPA binding site competes with uPAR-uPA binding which is required for a positive UV 450 nm absorbance signal. Increasing concentrations of ARM-U2 displace increasing amounts of uPAR from uPA which is detected by anti-uPAR/biotin labeled antibodies followed by avidin-HRP. The sigmoidal binding isotherm of absorbance at 450 nm vs log ARM-U2 concentration can then by fit by non-linear regression analysis to obtain the IC50 for ARM-U2/uPAR binding (Equation S2) which can then be translated into a KI for ARM-U2/uPAR binding using a competitive binding model adapted from the Cheng-Prusoff equation relating KI to IC50 (Equation S3). The ELISA experiments were performed as followed: To Corning high binding 96 well flat bottom plates was added 100 μl/well of 100 nM urokinase in sterile PBS. The plates were sealed and left to incubate at 4° C. overnight. The plates were then washed 1× with 200 μl wash buffer (PBS+0.05% Tween-20) and 1× with 400 μl wash buffer. The plates were blotted on paper towel and blocked for 1 h shaking at room temp with 300 μl of a solution of thermo superblock in PBS per well. Molecule dilutions into solutions of a fixed concentration (10 nM) of uPAR were prepared in 0.025% triton-X/PBS on a separate low binding plate during the blocking hour. The plates were again washed followed by the addition of 100 μl of the ARM-U2/uPAR solution with 0.1% final DMSO concentration. The solutions were mixed by multichannel pipette, sealed, and incubated for 2 h with shaking at room temperature. The plates were then washed 1× with 200 μl wash buffer (PBS+0.05% Tween-20) and 2× with 400 μl wash buffer. The plates were blotted on a paper towel followed by the addition of 100 μl/well of a solution of biotinylated anti-uPAR antibody in 1% BSA/PBS. (R&D Systems, 3.3 μl taken from 50 μg/250 μl-1000× stock) and incubation with shaking for 1 h at room temp. The plates were washed 1× with 200 μl wash buffer and 2× with 400 μl wash buffer and blotted on a paper towel. 100 μl of avidin-HRP (stock −500× from e-bioscience) were added per well, incubated 20 min with shaking at room temp followed by washing 1× with 200 μl wash buffer and 3× with 400 μl wash buffer. The plates were blotted dry with paper towel and 100 μl of TMB substrate was added to each well. The emergence of blue color was monitored and the reaction quenched with the addition of 50 μl of 2M sulfuric acid to each well followed by measuring the absorbance at 450 nm using a fluorescence plate reader. […]

A172 glioblastoma cells = assay: Antibody-dependent cellular phagocytosis (ADCP) of A172 cells by U937 cells; format: cell-based, human; details: U937 effector cells, anti-DNP antibodies
Protocol: ADCP experiments carried out via a dual channel flow cytometry assay and were performed by measuring the % phagocytosis of A172 human glioblastoma cells by IFN-gamma primed U937 macrophage effector cells each stained with FL-1 and FL-4 dyes respectively giving rise to double positive FL-1 and FL-4 fluorescence shifts accompanying phagocytosis. These assays were performed in the presence and absence of exogenously added anti-DNP antibodies and various concentrations of each ARM-U2 derivative. Control experiments were also performed to confirm that cellular phagocytosis is occurring and is dependent on ARM-U2 binding cell surface uPAR by • 1. Performing out competitions with exogenous uPAR, • 2. Performing out-competitions with 6-ABT-4 which should bind uPAR but not anti-DNP antibodies • 3. Performing ADCP at 4 degrees Celsius where phagocytosis cannot occur and • 4. Amnis microscopic analysis of double positives identified in the ADCP assay to undergo 6-ABT-1 dependent phagocytosis.
IFNγ-primed U937 cells were stained with DiD dye (final concentration 1.9 μM) for 30 min at 37° C. A172 target cells were prepared by staining adherent cells with DiO dye (Invitrogen; final concentration 1.9 μM), and then nonenzymatically detaching the cells with 0.5 mM EDTA and EGTA. Cells were counted with trypan blue staining to verify cell viability. To measure phagocytosis, 2.5×10^4 target cells were suspended in 25 ul phenol-free low-IgG RPMI media to which 25 ul of 100 nM anti-DNP antibody (rabbit polyclonal KLH IgG, Invitrogen-100× stock) containing media was added followed by the addition of 1 ul of ARM-U2 from 100×DMSO stocks or 6-ABT-4 from 100×DMSO stocks for compound out-competition experiments, followed by the addition of 50 ul of 10^5 U937 cells in the same RPMI Assay Media resulting in a final volume of 100 uL. This experimental setup yielded an effector-to-target ratio (E:T ratios) of 4:1. For out-competition studies with exogenous uPAR, 250 ul of A-172 target cells in assay media was added directly to lyophilized 100 ug uPAR (R@D systems) to yield an 8.4 uM stock uPAR concentration, this was then combined in the manner and order described above. Eppendorfs were centrifuged at 200 rcf for 2 min then incubated at 37° C. for 1 hour or at 4° C. for 1 hr in controls establishing real phagocytosis is indeed represented by double positives in flow cytometry. Phagocytosis was halted by placing tubes on ice. […] The live cell population selected was further gated into four quadrants using dual FL-1 and FL-4 fluorescence enabling for the differentiation of effector only cells (top left quadrant-high FL-4), target only cells (bottom right quadrant-high FL-1 fluorescence), and double positive overlapping target and effector cells (top right quadrant-high FL-1 and FL-4 fluorescence). […]

recombinant uPAR = biological target: T2, recombinant uPAR (Homo sapiens, UniProt Q03405); assay: Fluorescence quenching titration of ARM-U2 derivatives with uPAR; format: binding; details: fluorescence titration of 100 nM derivative with increasing uPAR; read-out: Kd, solution equilibrium dissociation constant with uPAR
T2 construct: purchased R&D systems
T2 sequence (Q03405 23-305): as above
Protocol: Selected ARM-U2 derivatives were assayed for their ability to bind recombinant uPAR using a fluorescence quenching assay. […] Increasing concentrations of recombinant uPAR were mixed with each compound containing aliquot and the fluorescence of the solution measured following 1 h equilibration times. […] To confirm that the observation of uPAR dependent fluorescence quenching was indeed due to specific binding to uPAR and to validate ARM-U2 binding to uPAR specifically via the uPA binding site, a direct binding ELISA assay was developed. In this assay, clear 96-well high-binding plates from CoStar, were loaded with 100 μl/well of 50 nM recombinant uPAR 807-UK-100-CF from R&D systems prepared from a 100 μg/ml (approx. 2.1 μM) stock of uPAR in PBS and left overnight at room temperature to equilibrate. Following equilibration, the plate was washed with wash buffer 1× (400 μl/well of 0.05% Tween/PBS), blotted dry and blocked for 1 hr with 300 ul/well of 2% BSA/PBS. Following blocking, the plate was washed with 400 ul of the wash buffer and blotted dry. […] The absorbance at 450 nm was measured using an in-house Perkin-Elmer fluorescence plate reader.
All ARM-U2 derivatives were assessed for their ability to bind selectively to recombinant uPAR in vitro using a competitive ELISA binding assay. […] Selective binding to uPAR by ARM-U2 at the uPA binding site competes with uPAR-uPA binding which is required for a positive UV 450 nm absorbance signal. Increasing concentrations of ARM-U2 displace increasing amounts of uPAR from uPA which is detected by anti-uPAR/biotin labeled antibodies followed by avidin-HRP. The sigmoidal binding isotherm of absorbance at 450 nm vs log ARM-U2 concentration can then by fit by non-linear regression analysis to obtain the IC50 for ARM-U2/uPAR binding (Equation S2) which can then be translated into a KI for ARM-U2/uPAR binding using a competitive binding model adapted from the Cheng-Prusoff equation relating KI to IC50 (Equation S3). […]

Structure (SMILES) | uPAR-binding affinity relative to parent ARM-U2 derivative 1-ABT-1 (uPAR (uPA binding site)) | ADCP efficacy and potency compared to 1-ABT-1 (A172 glioblastoma cells) | further results
COc1cccc2c1C(=O)c1c(O)c3c(c(O)c1C2=O)C[C@@](O)(C(=O)CO)C[C@@H]3O[C@H]1C[C@H](N)[C@H](O)[C@H](C)O1 [doxorubicin] | – | – | average tumor volume after 17 days ([1]; IP injections over 17 days): approximately 200 mm^3; mean survival ([1]; daily IP treatment): 27 days; tumor growth inhibition (TGI) ([1]; daily IP, ARM-U2 20 mpk or 100 mpk, Dox 1 mpk, vs PBS): comparable; persistence of tumor regression after treatment cessation ([1]; mouse, in vivo): ~14 days
O=C(O)CNc1cccc(Nc2cc(N3CCC[C@H](C(=O)NCCCOCCOCCOCCCNc4ccc([N+](=O)[O-])cc4[N+](=O)[O-])C3)c3noc4c3c2C(=O)c2ccccc2-4)c1 [4-ABT-1] | modest increase in affinity | no increase in efficacy or potency in ADCP | –
O=C(O)CNC(=O)c1cccc(Nc2cc(N3CCC[C@H](C(=O)NCCCOCCOCCOCCCNc4ccc([N+](=O)[O-])cc4[N+](=O)[O-])C3)c3noc4c3c2C(=O)c2ccccc2-4)c1 [3-ABT-1] | modest increase in affinity | no increase in efficacy or potency in ADCP | –
O=C1c2ccccc2-c2onc3c(N4CCC[C@H](C(=O)NCCCOCCOCCOCCCNc5ccc([N+](=O)[O-])cc5[N+](=O)[O-])C4)cc(Nc4cccc(S(=O)(=O)O)c4)c1c23 [5-ABT-1] | no increase in uPAR-binding affinity | no increase in % phagocytosis | –
O=C(CCCC(=O)NCCOCCOCCOCCOCCOCCOCCOCCNc1ccc([N+](=O)[O-])cc1[N+](=O)[O-])NCCOCCOCCOCCOCCOCCOCCOCCNC(=O)[C@H]1CCCN(c2cc(Nc3ccc(S(=O)(=O)O)cc3S(=O)(=O)O)c3c4c(onc24)-c2ccccc2C3=O)C1 [6-ABT-3] | – | – | Kd (recombinant uPAR): 18 nM
Nc1c(N2CCCC(C(=O)NCCCOCCOCCOCCCNc3ccc([N+](=O)[O-])cc3[N+](=O)[O-])C2)cc(Nc2ccc(S(=O)(=O)O)cc2S(=O)(=O)O)c2c1C(=O)c1ccccc1C2=O (stereo not drawn) [compound 23] | – | – | Ki (uPAR (uPA binding site); calculated from the ELISA IC50): 10 nM; IC50 (uPAR (uPA binding site); competition with immobilized uPA for uPAR): 63 nM
O=C(O)c1cc(Nc2cc(N3CCC[C@H](C(=O)NCCCOCCOCCOCCCNc4ccc([N+](=O)[O-])cc4[N+](=O)[O-])C3)c3noc4c3c2C(=O)c2ccccc2-4)cc(C(=O)O)c1 [2-ABT-1] | no increase in uPAR-binding affinity | no increase in efficacy or potency in ADCP | –
